# Results as given in US20250326738A1, “MALT1 Modulators and Uses Thereof” (Rarefied Biosciences, Inc., priority 2022, published 2025).
# Columns and labels:
# [1] = test system: Jurkat IL-2; test: Jurkat IL-2 assay (IL-2 inhibition by ELISA after anti-CD3/28/2 stimulation); assay type: cell-based; settings: Jurkat clone E6.1, IL-2 in supernatant, 30 min pre-incubation, anti-CD3/28/2 stimulation 24 hours, mean if tested more than once
# Experimental: Inhibition was determined in a cell-based assay using Jurkat (ATCC, clone E6.1), an immortalized T-cell line, exposed to a dose response of compound and assessed for viability, and IL-2 inhibition by ELISA. Cells were cultured in RPMI/10% FBS (Invitrogen 11875093, Atlanta Biologicals S12450H), maintained below 3E6/mL and only used in assays while below passage 25. Compounds were stamped by ECHO onto 384w plates (PerkinElmer Culturplate, 6007680). The cells were plated in fresh media on top of compound and incubated for 30 minutes before stimulation with soluble anti-CD3/28/2 (Stemcell, 10970) for 24 hours. Supernatant was collected and assessed for IL-2 (MSD, 384w, L21SA-1). To assess viability of cells treated with compound, cells were lysed with CTG reagent (Promega, G7570), and measured by luminometer. […] IC50s calculated using 4-parameter fit in GraphPad Prism.
# “N/A” indicates not tested. For a compound that was tested in more than one experiment, the result shown represents the mean value.
# [2] = target: T1, full length MALT1 (Homo sapiens, UniProt Q9UDY8); test: MALT1 biochemical assay (fluorogenic peptide substrate cleavage); settings: full length MALT1, 15 nM enzyme, 30 μM peptide substrate, 30 min pre-incubation, 60 min reaction; mean if tested more than once
# T1 construct: measuring enzymatic activity of full length MALT1 at varying concentrations of compound
# T1 sequence (Q9UDY8 1-824): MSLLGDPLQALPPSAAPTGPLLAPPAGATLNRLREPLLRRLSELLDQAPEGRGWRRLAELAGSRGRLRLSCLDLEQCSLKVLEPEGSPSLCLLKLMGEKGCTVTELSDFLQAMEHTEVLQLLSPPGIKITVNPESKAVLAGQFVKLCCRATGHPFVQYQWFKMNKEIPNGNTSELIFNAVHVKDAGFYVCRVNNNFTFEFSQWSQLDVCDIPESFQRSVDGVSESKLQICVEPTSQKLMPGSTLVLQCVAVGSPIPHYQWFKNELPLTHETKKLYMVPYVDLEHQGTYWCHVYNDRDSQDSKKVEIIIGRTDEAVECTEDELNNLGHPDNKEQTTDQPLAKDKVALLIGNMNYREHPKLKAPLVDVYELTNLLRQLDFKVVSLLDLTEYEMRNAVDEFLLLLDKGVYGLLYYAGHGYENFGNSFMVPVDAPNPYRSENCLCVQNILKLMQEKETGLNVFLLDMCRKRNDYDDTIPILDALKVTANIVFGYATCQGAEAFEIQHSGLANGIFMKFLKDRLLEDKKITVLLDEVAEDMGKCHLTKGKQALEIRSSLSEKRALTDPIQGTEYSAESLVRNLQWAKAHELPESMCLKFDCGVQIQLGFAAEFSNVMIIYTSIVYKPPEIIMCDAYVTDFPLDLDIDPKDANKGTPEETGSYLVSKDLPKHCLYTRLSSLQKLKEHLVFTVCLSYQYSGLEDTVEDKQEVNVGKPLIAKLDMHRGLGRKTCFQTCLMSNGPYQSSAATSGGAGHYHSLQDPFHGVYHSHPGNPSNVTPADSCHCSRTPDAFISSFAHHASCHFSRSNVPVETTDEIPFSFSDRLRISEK
# Experimental: Inhibitor potency was evaluated by measuring enzymatic activity of full length MALT1 at varying concentrations of compound. The enzymatic assay consists of a single substrate reaction that monitors the release of a fluorescent dye upon cleavage of the peptide substrate. […] The assay buffer consists of 50 mM Hepes, pH 7.5, 0.8 M sodium citrate, 1 mM DTT, 0.004% tween-20, and 0.005% bovine serum albumin (BSA). […] The reaction was quenched after 60 minutes with the addition of iodoacetate at a final concentration of 10 mM. Total fluorescence was measured using an Envision (PerkinElmer) with fluorescence excitation at 485 nm and emission at 520 nm.
# The reaction was initiated with the addition of 10 μL of peptide substrate. […] IC50 values were calculated by fitting the concentration-response curves to a four-parameter logistic equation in GraphPad Prism.
# “N/A” indicates not tested.
IC50 ([1]; Homo sapiens),IC50 [2],IC50 [1],Compound
100 to 1000 nM,100 to 1000 nM,,CO[C@@H](C)c1c(Nc2ccc([C@H](N(C)C(=O)C3CCN(C(C)=O)CC3)C(F)(F)F)cc2)cnn1-c1ccccc1 [Compound 1.31]
100 to 1000 nM,100 to 1000 nM,,CO[C@@H](C)c1c(Nc2ccc([C@H](N(C)C(=O)[C@H]3CC[C@H](C(=O)O)CC3)C(F)(F)F)cc2)cnn1-c1cccnc1 [Compound 2.8]
100 to 1000 nM,100 to 1000 nM,,CO[C@@H](C)c1c(Nc2ccc([C@H](N(C)C(=O)[C@H]3CC[C@H](C(=O)O)CC3)C(F)(F)F)cc2)cnn1-c1ccccc1 [Compound 2.6]
100 to 1000 nM,100 to 1000 nM,,CN(C(=O)C1CCS(=O)(=O)CC1)[C@@H](c1ccc(Nc2cnn(C3CC3)c2C(F)(F)F)cc1)C(F)(F)F [Compound 1.7]
< 100 nM,< 100 nM,,CN(C(=O)C1CCS(=O)(=O)CC1)[C@@H](c1ccc(Nc2cnn(-c3ccccn3)c2C(F)(F)F)cc1)C(F)(F)F [Compound 1.15]
< 100 nM,< 100 nM,,"CN(C(=O)[C@H]1C[C@H](C(=O)O)C1)[C@@H](c1ccc(Nc2cnn(-c3ccccn3)c2C(F)(F)F)cc1)C(F)(F)F [Compound 2.11, (1r,3r)-3-{methyl[(1S)-2,2,2-trifluoro-1-(4-{[1-(pyridin-2-yl)-5-(trifluoromethyl)-1H-pyrazol-4-yl]amino}phenyl)ethyl]carbamoyl}cyclobutane-1-carboxylic Acid Amine]"
100 to 1000 nM,< 100 nM,,CO[C@@H](C)c1c(Nc2ccc([C@H](N(C)C(=O)[C@H]3CC[C@H](C(=O)O)CC3)C(F)(F)F)cc2)cnn1-c1cccc(C#N)c1 [Compound 2.10]
< 100 nM,100 to 1000 nM,,CN(C(=O)C1CCS(=O)(=O)CC1)[C@@H](c1ccc(Nc2cnn(-c3ccncc3)c2C(F)(F)F)cc1)C(F)(F)F [Compound 1.14]
100 to 1000 nM,100 to 1000 nM,,CC(C)c1c(Nc2ccc([C@H](N(C)C(=O)C3CCS(=O)(=O)CC3)C(F)(F)F)cc2)cnn1-c1ccccc1 [Compound 1.8]
100 to 1000 nM,< 100 nM,,CO[C@@H](C)c1c(Nc2ccc([C@H](N(C)C(=O)C3CCN(C(C)=O)CC3)C(F)(F)F)cc2)cnn1-c1ccccn1 [Compound 1.32]
100 to 1000 nM,< 100 nM,,"CN(C(=O)[C@H]1C[C@@H](C(=O)O)C1)[C@@H](c1ccc(Nc2cnn(-c3ccccn3)c2C(F)(F)F)cc1)C(F)(F)F [Compound 2.12, (1s,3s)-3-{methyl[(1S)-2,2,2-trifluoro-1-(4-{[1-(pyridin-2-yl)-5-(trifluoromethyl)-1H-pyrazol-4-yl]amino}phenyl)ethyl]carbamoyl}cyclobutane-1-carboxylic Acid Amine]"
< 100 nM,100 to 1000 nM,,CN(C(=O)[C@H]1CC[C@H](C(=O)O)CC1)[C@@H](c1ccc(Nc2cnn(-c3cccnc3)c2C(F)(F)F)cc1)C(F)(F)F [Compound 2.3]
,> 1000 nM,100 to 1000 nM,"(1r,4S)—N—((S)-1-(4-((4-cyclopropyl-1,5-naphthyridin-3-yl)amino)phenyl)-2,2,2-trifluoroethyl)-N-methyl-4-(1H-tetrazol-5-yl)cyclohexane-1-carboxamide [Compound 3.1]"
< 100 nM,100 to 1000 nM,,CC(=O)N1CCC(C(=O)N(C)[C@@H](c2ccc(Nc3cnn(-c4ccccc4)c3C(F)(F)F)cc2)C(F)(F)F)CC1 [Compound 1.25]
100 to 1000 nM,100 to 1000 nM,,COC(C)c1c(Nc2ccc([C@H](N(C)C(=O)C3CCS(=O)(=O)CC3)C(F)(F)F)cc2)cnn1-c1cccnc1 (stereo partly drawn) [Compound 1.23]
< 100 nM,< 100 nM,,CN(C(=O)C1CCS(=O)(=O)CC1)[C@@H](c1ccc(Nc2cnn(-c3cccnn3)c2C(F)(F)F)cc1)C(F)(F)F [Compound 1.21]
< 100 nM,100 to 1000 nM,,CN(C(=O)C1CCS(=O)(=O)CC1)[C@@H](c1ccc(Nc2cnn(-c3cnccn3)c2C(F)(F)F)cc1)C(F)(F)F [Compound 1.19]
100 to 1000 nM,100 to 1000 nM,,CN(C(=O)C1CCS(=O)(=O)CC1)[C@@H](c1ccc(Nc2cnn(-c3ccccc3)c2C(F)(F)F)cc1)C(F)(F)F [Compound 1.6]

IC50 ([1]; Homo sapiens),IC50 [2],IC50 [1],Compound
< 100 nM,< 100 nM,,CC(=O)N1CCC(C(=O)N(C)[C@@H](c2ccc(Nc3cnn(-c4cccc(C#N)c4)c3C(F)(F)F)cc2)C(F)(F)F)CC1 [Compound 1.28]
100 to 1000 nM,100 to 1000 nM,,CC(=O)N1CCC(C(=O)N(C)[C@@H](c2ccc(Nc3cnn(-c4ccccc4)c3C(C)C)cc2)C(F)(F)F)CC1 [Compound 1.26]
< 100 nM,< 100 nM,,CN(C(=O)C1CCS(=O)(=O)CC1)[C@@H](c1ccc(Nc2cnn(-c3cccc(C#N)c3)c2C(F)(F)F)cc1)C(F)(F)F [Compound 1.17]
< 100 nM,< 100 nM,,CN(C(=O)[C@H]1CC[C@H](C(=O)O)CC1)[C@@H](c1ccc(Nc2cnn(-c3ccccn3)c2C(F)(F)F)cc1)C(F)(F)F [Compound 2.4]
100 to 1000 nM,100 to 1000 nM,,CN(C(=O)C1CCS(=O)(=O)CC1)[C@@H](c1ccc(Nc2cnn(-c3cccc4ncccc34)c2C(F)(F)F)cc1)C(F)(F)F [Compound 1.2]
< 100 nM,< 100 nM,,CN(C(=O)C1CCS(=O)(=O)CC1)[C@@H](c1ccc(Nc2cnn(-c3ccncn3)c2C(F)(F)F)cc1)C(F)(F)F [Compound 1.20]
100 to 1000 nM,< 100 nM,,CN(C(=O)[C@H]1C[C@@H](C(=O)O)C1)[C@@H](c1ccc(Nc2cnn(-c3ccccc3)c2C(F)(F)F)cc1)C(F)(F)F [Compound 2.14]
< 100 nM,< 100 nM,,CC(=O)N1CCC(C(=O)N(C)[C@@H](c2ccc(Nc3cnn(-c4cccnc4)c3C(F)(F)F)cc2)C(F)(F)F)CC1 [Compound 1.27]
< 100 nM,< 100 nM,,CN(C(=O)[C@H]1CC[C@H](C(=O)O)CC1)[C@@H](c1ccc(Nc2cnn(-c3cccnn3)c2C(F)(F)F)cc1)C(F)(F)F [Compound 2.9]
> 1000 nM,> 1000 nM,,CN(C(=O)C1CCS(=O)(=O)CC1)[C@@H](c1ccc(Nc2cnn(CC(C)(C)O)c2C(F)(F)F)cc1)C(F)(F)F [Compound 1.10]
100 to 1000 nM,100 to 1000 nM,,CC(C)n1ncc(Nc2ccc([C@H](N(C)C(=O)C3CCS(=O)(=O)CC3)C(F)(F)F)cc2)c1C(F)(F)F [Compound 1.9]
< 100 nM,< 100 nM,,CN(C(=O)[C@H]1C[C@H](C(=O)O)C1)[C@@H](c1ccc(Nc2cnn(-c3ccccc3)c2C(F)(F)F)cc1)C(F)(F)F [Compound 2.13]
100 to 1000 nM,< 100 nM,,CC(=O)N1CC(C(=O)N(C)[C@@H](c2ccc(Nc3cnn(-c4ccccn4)c3C3CC3)cc2)C(F)(F)F)C1 [Compound 1.40]
> 1000 nM,> 1000 nM,,CC(C)c1c(Nc2ccc([C@H](N(C)C(=O)C3CCS(=O)(=O)CC3)C(F)(F)F)cc2)cnn1C [Compound 1.5]
100 to 1000 nM,< 100 nM,,CO[C@@H](C)c1c(Nc2ccc([C@H](N(C)C(=O)[C@H]3CC[C@H](C(=O)O)CC3)C(F)(F)F)cc2)cnn1-c1ccccn1 [Compound 2.5]
> 1000 nM,100 to 1000 nM,,CO[C@@H](C)c1c(Nc2ccc([C@H](N(C)C(=O)[C@H]3CC[C@H](C(=O)O)CC3)C(F)(F)F)cc2)cnn1-c1ccncc1 [Compound 2.7]
100 to 1000 nM,,,CC(=O)N1CC(C(=O)N(C)[C@@H](c2ccc(Nc3cnn(-c4cccnc4)c3C3CC3)cc2)C(F)(F)F)C1 [Compound 1.41]
